The values below come from PubChem BioAssay (NCI).

Holding throughout (experiment): NCI tumour cell line growth inhibition, 48 h
Assay [1] has as its system PC-3 prostate.
Assay [2] concerns MOLT-4 leukemia.
Assay [3] deals with HCT-116 colon.
The test system of assay [4] is HOP-92 NSCLC.
In assay [5] the test system is HL-60(TB) leukemia.
Assay [6] concerns HOP-62 NSCLC.
In assay [7] the test system is CAKI-1 renal.
The test system of assay [8] is MDA-MB-231 breast.
For assay [9], the system named is RXF 393 renal.
Assay [10] deals with HCC-2998 colon.

Molecules are shown by their SMILES. Values joined by “and” are separate entries in the source; they are usually repeats but may differ in a detail not shown here. Equal values may be shown once.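 Dose response: 5 concentrations. Exposure: 48 h. Format: 96-well plates. Endpoint: linear interpolation; highest concentration if not reached. GI50 = concentration required for 50% inhibition of growth. TGI denotes the concentration required for complete inhibition of growth.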

On to `C/C=C(\C)C(=O)OC1/C=C(\C)CC/C=C(\C)CC2OC(=O)C(C)(OC(C)=O)C12` (stereo not given), for which the TGI in assay [1], in [2], in assay [3], in assay [4], in [5] and in assay [6] was over 100 µM in each case. The TGI in assay [7], in assay [8], in assay [9] and in [10] was over 100 µM throughout.
Consider `CC1=NOC(=O)/C1=C/c1ccc2c(c1)OCO2`, for which the TGI in [1] is 48.5 µM; in assay [3], over 100 µM; in [4], over 100 µM; in [6] it was 40.9 µM; in assay [7], 36.4 µM; in assay [8] it was 53.9 µM. Further, the TGI turned out to be 30.7 µM in [9] and 95.5 µM in [10].
On to `Cc1ccc(C(=O)NC2CC2)cc1-c1ccc2[nH]ncc2c1`, for which the GI50 in assay [1] is over 25 µM; in [2], over 25 µM; in assay [3], over 25 µM; in [4], 6.22 µM; in assay [5], over 25 µM; in assay [6], over 25 µM. For the same molecule, the GI50 in [7], in [8], in assay [9] and in [10] was over 25 µM each time. The TGI in assay [1], in [2], in assay [3], in assay [4], in assay [5] and in assay [6] was over 25 µM throughout. Moreover, the TGI in [7], in assay [8], in assay [9] and in assay [10] was over 25 µM each time.
As to `C[C@]12C[C@H](O)[C@H]3[C@@H](CCC4=CC(=O)CC[C@@]43C)[C@@H]1CC[C@@H]2c1csc(-c2ccccc2)n1`, the TGI in assay [1] was 20.3 µM; in assay [3], over 100 µM; in [4], over 100 µM; in assay [6], over 51.3 µM; in [7] it was over 100 µM; in assay [8] it was over 77.8 µM. Moreover, the TGI in [9] was over 100 µM.
As to `CO/N=C(\COc1ccc2oc(-c3ccccc3)cc(=O)c2c1)c1ccc(F)cc1`, the GI50 in [1] was 22.6 µM; in assay [3], 20.3 µM; in assay [5], 27.3 µM; in [6], 18.6 µM; in [7], over 100 µM; in assay [8], 18.7 µM. Also, the GI50 was 15.8 µM in assay [9] and 23.6 µM in [10]. Further, the TGI in [1] was 57.3 µM; in assay [3], 48.2 µM; in assay [5], over 100 µM; in [6] it was 35.2 µM; in [7], over 100 µM; in assay [8], 39 µM. Also, the results for the TGI in assay [9] and in assay [10] were 44.7 µM and 54.4 µM, respectively.
As for `C=C1CCC2C3(C)COC(c4ccccc4Cl)OC3CCC2(C)C1/C=C/C1=CCOC1=O` (stereo not given), the GI50 in [1] was 3.17 µM; in [2], 3.77 µM; in assay [3] it was 4.48 µM; in [4], 1.6 µM; in assay [5] it was 4.97 µM; in assay [6] it was over 100 µM. Further, the GI50 in assay [7] was 4.08 µM; in [8] it was over 100 µM; in [9], over 100 µM; in assay [10], 21.1 µM. The TGI in [1], in assay [2], in [3], in [4], in assay [5] and in assay [6] was over 100 µM each time. The TGI in assay [7], in [8], in assay [9] and in [10] was over 100 µM in each case.
With `CC1=C(C)SC(=C2Sc3c(n(C)c(=O)n(C)c3=O)S2)S1`, the TGI in assay [1] was over 100 µM; in assay [2], over 100 µM; in assay [3] it was 27.5 µM; in [4] it was over 100 µM; in assay [5], over 100 µM; in [6], 41.3 µM. The TGI was over 100 µM in [7], 75.3 µM in assay [8], over 100 µM in assay [9] and over 100 µM in assay [10].
Take `COC(=O)N[C@H]1CCc2c(Cl)c(OC)c(OC)c(OC)c2-c2ccc(SC)c(=O)cc21`: the GI50 in assay [1] was under 0.01 µM; in [2], under 0.01 µM; in assay [3] it was under 0.01 µM; in assay [4], 0.0199 µM; in assay [5], under 0.01 µM; in [6] it was under 0.01 µM. Also, the GI50 was under 0.0208 µM in assay [7], under 0.01 µM in assay [8] and under 0.01 µM in assay [10]. In addition, the TGI in assay [1] was over 70.3 µM; in assay [2] it was over 76.8 µM; in assay [4], 18.6 µM; in assay [5] it was under 0.0127 µM; in assay [6], over 100 µM; in assay [7], 48.3 µM. This molecule gave a TGI in [8] of 11.9 µM.
On to `COc1c(N2CCN(CN3C(=O)C(=Nc4ccc(S(=O)(=O)Nc5ncccn5)cc4)c4cc(Cl)ccc43)C(C)C2)c(F)cc2c(=O)c(C(=O)O)cn(C3CC3)c12` (stereo not given), for which the GI50 was 15 µM in [1]; 33.3 µM in assay [2]; 9.19 µM in assay [3]; 19.2 µM in assay [4]; 16.6 µM in assay [5]; 18.2 µM in assay [6]. In addition, the GI50 in assay [7] is 14 µM; in assay [8], 8.28 µM; in assay [9], 8.3 µM. The TGI in assay [1] is over 50 µM; in assay [2], over 50 µM; in assay [3], 21.7 µM; in assay [4], over 50 µM; in assay [5] it was over 50 µM; in [6] it was over 50 µM. Moreover, the results for the TGI in assay [7], in assay [8] and in [9] were 42.2 µM, 31 µM and over 50 µM, respectively.
`CC[C@]12C=CCN3CCC4(c5cc([C@@]6(C(=O)OC)CC7CN(CCc8c6[nH]c6ccccc86)CC6CCCCC67)c(OC)cc5N(C)C4[C@](O)(C(=O)OC)C1OC(C)=O)[C@@H]32` (stereo not given in full): the TGI in assay [1] was 0.393 µM; in assay [3], 0.0631 µM; in assay [4] it was 1.5 µM; in [5], over 100 µM; in [6], 6.07 µM; in [7] it was 12 µM. The TGI is 0.0655 µM in assay [8], 16.9 µM in assay [9] and under 0.01 µM in assay [10].
`CCCCn1c(=O)c(/C=C/C(=O)/C=C/c2cc3ccccc3n(CCCC)c2=O)cc2ccccc21`: the GI50 in assay [1] is 1.79 µM; in assay [4], 1.96 µM; in assay [5], 1.71 µM; in [6], 2.27 µM; in assay [7], 1.87 µM; in assay [8], 1.84 µM. For the same molecule, the GI50 in [9] is 1.8 µM; in [10] it was 1.01 µM. For the same molecule, the TGI worked out at 3.86 µM in assay [1]; 4.12 µM in assay [4]; 6.63 µM in assay [5]; 4.08 µM in [6]; 3.27 µM in assay [7]; 3.37 µM in [8]. Also, the TGI in [9] is 3.32 µM; in assay [10] it was 2.26 µM.
Take `O=C1CSC(c2c[nH]c3ccccc23)N1c1ccc(Cl)cc1Cl` (stereo not given): the TGI in assay [1], in [2], in assay [3], in [4], in assay [5] and in assay [6] was over 100 µM in each case. Besides, the TGI in assay [8], in [9] and in assay [10] was over 100 µM each time.
Regarding `COc1cc2c3c(n(CCCNCCCN)c(=O)c2cc1OC)-c1cc2c(cc1C3=O)OCO2`, the GI50 in assay [1] was 3.53 µM; in assay [2] it was 0.244 µM; in assay [3], 1.34 µM; in assay [4], 1.36 µM; in [5], 1.46 µM; in assay [6], 1.6 µM. Besides, the GI50 is 8.22 µM in [7], 2.93 µM in assay [8] and 3.91 µM in assay [9]. Besides, the TGI in assay [1] was 14.6 µM; in [2], 0.688 µM; in [3] it was 5.32 µM; in assay [4], 11.2 µM; in assay [5], 5.28 µM; in assay [6], 13 µM. The values for the TGI in [7], in [8] and in assay [9] were 37.3 µM, 12.6 µM and 16.8 µM, respectively.
Regarding `CC[C@H](C)[C@H](NC(=O)c1cccn1C)C(=O)N(C)[C@H](C[C@@H](OC(C)=O)c1nc(C(=O)N[C@@H](Cc2ccccc2)C[C@H](C)C(=O)OC)cs1)C(C)C`, the GI50 was 0.141 µM in [1]; 0.429 µM in [2]; 0.127 µM in [3]; 0.13 µM in assay [4]; 0.076 µM in assay [5]; 0.32 µM in [6]. Besides, the figures for the GI50 in [8] and in assay [10] were 0.364 µM and 0.166 µM, respectively. Also, the TGI is over 33.3 µM in [1]; over 33.3 µM in assay [2]; over 11.3 µM in [3]; 5.08 µM in assay [4]; 0.208 µM in [5]; over 33.3 µM in [6]. Further, the TGI is 5.75 µM in assay [8] and over 33.3 µM in [10].
On to `N#CC1=C(N)NC(=O)NC12Nc1ccccc1N2`, for which the GI50 was over 100 µM in assay [1]; over 100 µM in assay [2]; over 100 µM in [3]; 31.3 µM in assay [4]; over 100 µM in assay [6]; over 100 µM in [7]. The GI50 in assay [8], in assay [9] and in [10] was over 100 µM throughout. Moreover, the TGI in assay [1], in assay [2], in [3], in assay [4], in assay [6] and in [7] was over 100 µM each time. For the same molecule, the TGI in [8], in assay [9] and in assay [10] was over 100 µM in each case.
For the molecule `O=C(O)c1ccc(SSc2ccc(C(=O)O)cn2)nc1`, the TGI in assay [1], in [2], in assay [3], in assay [4], in assay [5] and in [6] was over 100 µM each time. Also, the TGI in assay [7], in assay [8] and in assay [9] was over 100 µM throughout.
On to `CC(SCc1ccccc1)C(=O)O` (stereo not given), for which the TGI in assay [1], in assay [2], in assay [3], in assay [4], in assay [5] and in assay [6] was over 100 µM throughout. Also, the TGI in assay [7], in assay [8] and in assay [9] was over 100 µM throughout.
For the molecule `O=c1/c(=N\Nc2ccccc2)c2cccc3ccc4cccc1c4c32`, the TGI in assay [1], in assay [2], in assay [3], in assay [4], in assay [6] and in assay [7] was over 100 µM each time. For the same molecule, the TGI in assay [8] and in assay [9] was over 100 µM throughout.
Take `CC1SC(c2ccc(Cl)cc2Cl)N(NC(=O)C(O)c2ccccc2)C1=O` (stereo not given): the GI50 was 42.3 µM in assay [1]; 34.5 µM in assay [2]; 62 µM in assay [3]; 35.9 µM in assay [4]; over 100 µM in assay [6]; 60.1 µM in [7]. Also, the GI50 was 46.2 µM in [8], 42.9 µM in assay [9] and over 100 µM in assay [10]. Also, the TGI in [1], in [2], in [3], in assay [4], in [6] and in assay [7] was over 100 µM throughout. Further, the TGI in assay [8], in assay [9] and in assay [10] was over 100 µM throughout.
In the case of `COC(=O)[C@H](Cc1cn(C)cn1)NC(=O)[C@H](Cc1ccccc1)NC(=O)Nc1cc(C(F)(F)F)cc(C(F)(F)F)c1`, the GI50 is 9.17 µM and 12.4 µM in assay [1]; 5.87 µM and 11.4 µM in assay [2]; 3.1 µM and 3.54 µM in assay [3]; 16.5 µM in assay [5]; 17.5 µM in assay [6]; 17.1 µM in [7]. Besides, the GI50 in assay [8] was 5.03 µM and 7.85 µM; in assay [10], 3.86 µM. Also, the TGI in [1] stood at 25.8 µM; in assay [2], 28.9 µM; in [3], 10.9 µM; in assay [5], 32.7 µM; in assay [6], 31.9 µM; in assay [7] it was 31.7 µM. In assay [8], this molecule showed a TGI of 21.2 µM.
